Earlier results in patent US7402577B2, “Androstane 17-beta-carboxamides as androgen receptor modulators” (priority 2001, dated 2008).

Key:
spinal BMD = conditions: after 7 years of treatment
fractures = conditions: postmenopausal osteoporotic women, median of 22 months of treatment

| Compound | increase in spinal BMD (spinal BMD) | reduction in nonvertebral fractures (fractures) | reduction in spine fractures (fractures) |
| --- | --- | --- | --- |
| NCCCC(O)(P(=O)([O-])O)P(=O)(O)O.O.O.O.[Na+] [alendronate, (4-amino-1-hydroxybutylidene)-bis-phosphonate monosodium trihydrate] | ≤ 11% | – | – |
| hPTH(1-34): human parathyroid hormone 1-34 fragment (SVSEIQLMHNLGKHLNSMERVEWLRKKLQDVHNF; Parathyroid hormone; UniProt P01270 32-65, looked up, fragment) | – | 54% | ≥ 65% |
